Data set [1] relates to gram-positive and gram-negative organisms. As to conditions: cited from earlier work.
Data set [2] can be described thus: Absorption from the gastro-intestinal tract and in vivo hydrolysis. Also noted: species or system animals and human volunteers. As to conditions: oral, in words.
The test system of a further data set is β-lactamases. Particulars: cited from earlier work.
Data set [3] deals with β-lactamase producing bacteria. Particulars: cited from earlier work.
The conditions of data set [4]: cited from earlier work.
Data set [5] is described as follows: Stability of crystalline form. It is filed as physicochemical. As to conditions: crystalline free base; in words.
The conditions of data set [6]: human, in vivo, po. How it is done: Serum concentrations and urinary excretion of ampicillin in fasting
following oral administration of
A. 125 mg of pivampicillin free base in tablets.
B. 170 mg of VD-1827^x hydrochloride (corresponding to 125 mg of
free base) in aqueous solution.
Serum concentrations (μg/ml) (% of dose)

The conditions of data set [7]: in words, medium not stated; cited from earlier work.
Data set [8] is described as follows: Urinary excretion in 0 to 6 hours of penicillanic acid 1,1-dioxide in fasting volunteers following oral administration (Table II). As to conditions: oral 73 mg potassium penicillanate 1,1-dioxide, aqueous solution, individual subjects in order GK, MK, FJ, MM, LA, 360 min.

Each structure is given as a SMILES string. Values joined by “and” are separate entries in the source; they are usually repeats but may differ in a detail not shown here. Identical values can stand only once. Counter-ions that a name gives are not always drawn. Like-named read-outs stand apart in the source and are kept apart here.

Data on eleven molecules can be found in patent publication US4342772A, “β-Lactam compounds, antibacterial compositions thereof and method of use” (priority 1979, dated 1982).

Regarding `CC1(C)[C@H](C(=O)O)N2C(=O)C[C@H]2S1(=O)=O` [penicillanic acid 1,1-dioxide], the “Antibacterial activity against most gram-positive and gram-negative organisms” value (from here on “Antibacterial activity”) in data set [1] is “only weak antibacterial activity”. Also, in data set [2], the “Absorption from the gastro-intestinal tract” value was “absorbed poorly or irregularly”. Moreover, the “Inhibition of a wide range of β-lactamases” value (“Inhibition” for short) in the data set on β-lactamases is “powerful inhibitors”. Also, the “Synergy against β-lactamase producing bacteria” value (from here on “Synergy”) in data set [3] is reported as “act synergistically”.
With `CC1(C)S[C@@H]2C(NC(=O)[C@H](N)c3ccccc3)C(=O)N2[C@H]1C(=O)O` (stereo partly drawn) [ampicillin, 6-(D-α-amino-α-phenylacetamido)penicillanic acid], the “Absorption from the gastro-intestinal tract (general statement)” value (from here on “Absorption … (general statement)”) in data set [4] (oral, in words, no data shown) was “incompletely absorbed”.
For `COc1cccc(OC)c1C(=O)N[C@@H]1C(=O)N2[C@@H](C(=O)O)C(C)(C)S(=O)(=O)[C@H]12` [methicillin sulphone, 1,1-dioxo-6β-(2,6-dimethoxybenzamido)penicillanic acid], the “Antibacterial activity” value in [1] is on record as “only weak antibacterial activity”. Moreover, in the data set on β-lactamases, the “Inhibition” value is “powerful inhibitors”. For the same molecule, the “Synergy” value in data set [3] is reported as “act synergistically”.
Take `CC1(C)S[C@@H]2[C@H](NC(=O)C(C(=O)O)c3ccccc3)C(=O)N2[C@H]1C(=O)O` (some centres unmarked) [carbenicillin]: the “Absorption … (general statement)” value in data set [4] (in vivo, po) is “incompletely absorbed”.
In the case of `CC1(C)S[C@@H]2[C@H](NC(=O)[C@H](N)c3ccccc3)C(=O)N2[C@H]1C(=O)OCOC(=O)[C@@H]1N2C(=O)C[C@H]2S(=O)(=O)C1(C)C` [VD-1827, free base, 1,1-Dioxopenicillanoyloxymethyl 6-(D-α-amino-α-phenylacetamido)penicillanate], the Stability result in data set [5] is reported as “stable”. Further, in data set [2] (listed as free base VD 1827), the “Absorption from the gastro-intestinal tract” value is “readily absorbable”.
`CC(C)(C)C(=O)OCOC(=O)[C@@H]1N2C(=O)[C@@H](NC(=O)[C@H](N)c3ccccc3)[C@H]2SC1(C)C` [pivampicillin]: the “Absorption … (general statement)” value in [4] (oral, in words, no data shown) is listed as “absorbed very rapidly”.
`CC1(C)[C@H](C(=O)O)N2C(=O)[C@H](Cl)[C@H]2S1(=O)=O` [6α-chloropenicillanic acid 1,1-dioxide]: in data set [1], the “Antibacterial activity” value is given as “only weak antibacterial activity”. The “Inhibition” value in the data set with β-lactamases was “powerful inhibitors”. The “Synergy” value in [3] is on record as “act synergistically”.
`CC1(C)S[C@@H]2[C@H](NC(=O)[C@H](N)c3ccccc3)C(=O)N2[C@H]1C(=O)OCOC(=O)[C@@H]1N2C(=O)C[C@H]2S(=O)(=O)C1(C)C` [VD-1827 hydrochloride, 1,1-Dioxopenicillanoyloxymethyl 6-(D-α-amino-α-phenylacetamido)penicillanate hydrochloride]: in data set [2] (HCl, hydrochloride), the “Absorption from the gastro-intestinal tract” value is listed as “efficient oral absorption”. For the same molecule, the “Urinary recovery of ampicillin compared with pivampicillin” value in data set [6] is listed as “comparable to that following administration of pivampicillin”.
As to `CC1(C)[C@H](C(=O)O)N2C(=O)[C@@H](NC(=O)c3nc4ccccc4nc3C(=O)O)[C@H]2S1(=O)=O` [quinacillin sulphone], the “Antibacterial activity” value in data set [1] is “only weak antibacterial activity”. For the same molecule, the “Inhibition” value in the data set with β-lactamases was “powerful inhibitors”. For the same molecule, the “Synergy” value in [3] was “act synergistically”.
For the molecule `CC(C)(C)C(=O)OCOC(=O)[C@@H]1N2C(=O)C[C@H]2S(=O)(=O)C1(C)C` [pivaloyloxymethyl ester of the β-lactamase inhibitor penicillanic acid 1,1-dioxide], in data set [7], the “Solubility (general statement)” value was “sparingly soluble”. Further, in data set [4] (oral, in words, no data shown), the “Absorption … (general statement)” value is listed as “absorbed much more slowly”.
As to `CC1(C)[C@H](C(=O)[O-])N2C(=O)C[C@H]2S1(=O)=O.[K+]` [potassium penicillanate 1,1-dioxide], the “Urinary excretion of penicillanic acid 1,1-dioxide” value in data set [8] was 2.5 % of dose and 4.0 % of dose and 9.5 % of dose and 5.5 % of dose and 4.5 % of dose.
